This passage reports CD47 cell-surface expression and liver weight results from patent US20240190993A1, “NEW METHOD TO IMPROVE THE ANTI-TUMORAL ACTIVITY OF MACROPHAGES” (INSERM (INSTITUT NATIONAL DE LA SANTÉ ET DE LA RECHERCHE …, priority 2021, published 2024).

Test [1] has as its system CD47. Kind of test: CD47 cell-surface expression in human NB cell lines in vitro, flow cytometry. The class given is cell-based. The conditions noted are these: human NB cell lines IMR5, LAN1; 72 hours incubation; FIG. 2A-C. How it is done:
(§1) FIG. 2. Both O-acetyl GD2-specific monoclonal antibody 8B6 and 13-cis-RA exposures induce CD47 phagocytosis checkpoint up-regulation in NB cells in vitro. The NB cells IMR5, LAN1 and NXS2 were respectively incubated for 72 hours with (A) 13-cis-RA, (B) mAb 8B6, and (C) 13-cis-RA plus mAb 8B6, as indicated. After incubation, CD47 cell surface expression was analyzed by flow cytometry analysis. […] Data are presented as the mean±SEM ([…]; **p<0.01; ***p<0.001; Mann-Whitney test).
(§2) We next interrogate the impact of mAb 8B6, used alone or in combination with 13-cis-RA, on CD47 cell-surface expression in human NB cell line. After 72 hours incubation, cells were harvested, stained with a CD47-specific mAb and then subjected to flow cytometry analysis. […] The tested treatments had little impact on CD47 NXS2 cell-surface expression (FIG. 2A-C).
(In flow cytometry, cells or beads pass a laser one at a time.)

For test [2], the system named is NXS2 cells. Kind of test: syngeneic model of NXS2 NB liver metastasis in A/J mice, liver weight. Format: in vivo, mouse. How it is done: Depletion of macrophages in 8-week-old A/J mice was performed clodronate liposomes or liposomes obtained from Liposoma (Liposoma BV, Amsterdam, the Netherlands) according to the manufacturer's instructions. Mice were given either clodronate liposomes or liposome i.p. 4 days before tumor cell injection and thereafter on days 0, 3, 7, 10, 14, 17, and 21 post-tumor cell inoculation. The effectiveness of macrophage depletion was determined by flow cytometry analysis of CD45+F4/80+CD11b+Ly6G-Ly6Clow-int cells among splenocytes from the treated animals.
NXS2 Cells (2.5×10^5 in 100 μL of PBS) were transplanted into syngeneic 8-weeks old female A/J mice (Harlan Laboratories, Gannat, France) i.v., to induces liver metastasis 6. Mice received either mAb 8B6 (25 μg, i.v.) or mAb P84 (200 μg, i.p.) twice a week for 3 consecutive weeks beginning 3 days after tumor cell injection. Isotretinoin was given orally diluted in Ora-Plus® at 10 mg/kg daily for 5 consecutive days, starting week 3 after tumor cell challenge. Mice were euthanized on day 27 post-tumor challenge. Anti-tumor efficacy was evaluated by liver weight of the fresh specimen as described previously 6.

The subject of test [3] is CD47. The test is described as follows: CD47 cell-surface expression in NXS2 cells in vitro, flow cytometry. Format: cell-based, mouse. The conditions noted are these: 72 hours incubation, FIG. 2A-C. How it is done: as §1, §2

“Also recorded” adds a separate entry of the source.

Turning to `CC1=C(/C=C/C(C)=C/C=C/C(C)=C\C(=O)O)C(C)(C)CCC1` [13-cis-RA, 13-cis-retinoic acid], the results for the CD47 cell-surface expression result in test [1] and in test [3] were “induces up-regulation of CD47; also recorded: induced CD47 up-regulation” and “induces up-regulation of CD47”, respectively. Further, the liver weight in test [2] (FIG. 1B, day 27 after i.v. NXS2 inoculation, 8 mice/group, 8B6 i.v. days 3,7,10,14,17,21, 13-cis-RA 10 mg/kg per os) came to 1.19 ± 0.0 g; in test [2] (FIG. 4B, day 27, 8B6 25 μg i.v., P84 i.p. days 3,7,10,14,17,21, 13-cis-RA 10 mg/kg per os days 17-21) it was 1.95 ± 0.12 g.
